From ChEMBL document CHEMBL1140143, “Combining ligand-based pharmacophore modeling, quantitative structure-activity relationship analysis and in silico screening for the discovery of new potent hormone sensitive lipase inhibitors” (J Med Chem, 2008) come the findings set out here.

SMILES strings stand for the structures.

Broadly, the IC50 is the concentration at which inhibition is half-maximal. Lower therefore signals higher potency.

In this assay the target is T1, Hormone-sensitive lipase (Rattus norvegicus, UniProt P15304).
T1 sequence (P15304 whole entry): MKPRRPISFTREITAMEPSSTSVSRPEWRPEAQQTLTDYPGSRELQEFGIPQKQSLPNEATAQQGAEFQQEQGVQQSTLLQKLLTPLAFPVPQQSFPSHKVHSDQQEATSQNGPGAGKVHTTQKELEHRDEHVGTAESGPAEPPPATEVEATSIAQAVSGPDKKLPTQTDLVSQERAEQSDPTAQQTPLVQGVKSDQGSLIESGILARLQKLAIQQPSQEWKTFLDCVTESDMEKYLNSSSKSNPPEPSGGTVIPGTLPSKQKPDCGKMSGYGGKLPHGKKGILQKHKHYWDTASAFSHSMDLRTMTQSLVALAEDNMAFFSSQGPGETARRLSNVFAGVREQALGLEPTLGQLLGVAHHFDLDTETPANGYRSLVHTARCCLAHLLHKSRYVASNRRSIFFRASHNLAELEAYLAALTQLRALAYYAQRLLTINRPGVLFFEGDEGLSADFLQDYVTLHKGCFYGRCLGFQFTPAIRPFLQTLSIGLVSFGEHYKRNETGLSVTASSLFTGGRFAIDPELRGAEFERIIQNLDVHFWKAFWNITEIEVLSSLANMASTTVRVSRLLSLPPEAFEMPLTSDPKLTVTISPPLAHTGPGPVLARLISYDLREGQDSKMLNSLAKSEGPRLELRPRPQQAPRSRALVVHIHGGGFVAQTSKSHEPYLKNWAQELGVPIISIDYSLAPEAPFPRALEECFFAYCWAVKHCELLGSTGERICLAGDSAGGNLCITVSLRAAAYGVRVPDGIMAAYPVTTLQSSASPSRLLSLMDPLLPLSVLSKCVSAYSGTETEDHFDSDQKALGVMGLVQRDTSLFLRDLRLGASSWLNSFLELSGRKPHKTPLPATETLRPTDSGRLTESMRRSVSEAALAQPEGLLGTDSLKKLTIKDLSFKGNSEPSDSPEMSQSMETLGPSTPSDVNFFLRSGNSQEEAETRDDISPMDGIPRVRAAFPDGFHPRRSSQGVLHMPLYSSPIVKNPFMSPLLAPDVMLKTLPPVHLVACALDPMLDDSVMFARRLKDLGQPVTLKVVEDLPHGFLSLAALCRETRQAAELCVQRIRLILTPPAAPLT
The experiment in a line: Inhibition of HSL in Wistar rat isolated fat cells by spectrophotometric assay.
For `O=C(N1CCCCC1)n1nc(-c2ccc(Cl)cc2)nc1SCC1CC1`, the concentration for half-maximal inhibition (IC50) was 0.00353 µM. The same measure for `CSc1nc(-c2ccc(Cl)cc2)nn1C(=O)N1CCCCC1`: 0.00176 µM. The molecule `Cc1ccc(C2CCN(C(=O)n3oc(=O)c(C(C)C)c3C)CC2)cc1` had a half-inhibitory concentration (IC50) of 0.037 µM.

As for `CSc1nc(-c2ccc(-c3ccccc3)cc2)nn1C(=O)N(C)C`, the IC50 was 0.0265 µM.

Take `Cc1c(C(C)C)c(=O)on1C(=O)N1CCc2ccccc21`: the 50% inhibitory concentration (IC50) is above 1 µM. `Cc1c(CC(C)C)c(=O)on1C(=O)N1CCC(C)CC1` yielded an IC50 of 0.003 µM. That is a single-digit nanomolar value. For `Cc1c(C2CCSCC2)c(=O)on1C(=O)N1CCC(C)CC1`, the concentration for half-maximal inhibition (IC50) was 0.006 µM. Turning to `Cc1c(-c2ccccc2)c(=O)on1C(=O)N1CCCCC1`, the concentration for half-maximal inhibition (IC50) amounted to 0.014 µM. In turn, `Cc1c(C(C)C)c(=O)on1C(=O)N1CCC(Cc2ccccc2)CC1` displayed an IC50 of 0.102 µM. With `Cc1ccc(-c2nc(SCC(F)(F)F)n(C(=O)N(C)C)n2)cc1`, the concentration for half-maximal inhibition (IC50) was found to be 0.0106 µM. The same measure for `Cc1c(C(C)C)c(=O)on1C(=O)N1CCC[C@@H](C)C1`: 0.02 µM; for `COCCc1c(C)n(C(=O)N2CCC(c3ccccc3)CC2)oc1=O`: 0.011 µM; for `Cc1c(C(C)C)c(=O)on1C(=O)N1CCN(c2ccccc2Cl)CC1`: 0.03 µM.

Molecule `CCCCc1c(C)n(C(=O)N2CCC(C)CC2)oc1=O` came in with an IC50 of 0.001 µM. In the case of `Cc1c(C(C)C)c(=O)on1C(=O)N1CCCc2ccccc21`, the concentration for half-maximal inhibition (IC50) came to 0.06 µM.

As for `Cc1c(C(C)C)c(=O)on1C(=O)N1CCC[C@H](C)C1`, the midpoint of inhibition, the IC50, lay at 0.003 µM. This IC50 is about 20-fold lower than that of the molecule before.

`Cc1c(C(C)C)c(=O)on1C(=O)N1CCC(O)CC1` came in with an IC50 of 0.166 µM. With `Cc1nnc(C2CCN(C(=O)n3oc(=O)c(C(C)C)c3C)CC2)o1`, the IC50 was above 1 µM. The same measure for `CSc1nc(-c2ccc(C)cc2)nn1C(=O)N(C)C`: 0.00053 µM; for `Cc1ccc(CN(C)C(=O)n2oc(=O)c(C(C)C)c2C)cc1`: 0.408 µM; for `Cc1c(C(C)C)c(=O)on1C(=O)N(C)C1CCCCC1`: 0.009 µM. The same measure for `Cc1c(C(C)C)c(=O)on1C(=O)N1CCC(C)CC1`: 0.006 µM. `Cc1c(C2CCS(=O)(=O)CC2)c(=O)on1C(=O)N1CCCCC1` yielded an IC50 of 0.055 µM. The same measure for `COCCc1c(C)n(C(=O)N2CCC(c3cccc(C)c3)CC2)oc1=O`: 0.023 µM. For `CSc1nc(-c2ccc(Cl)cc2)nn1C(=O)N(C)C`, the IC50 was determined as 0.000353 µM.

`Cc1c(C(C)C)c(=O)on1C(=O)N1CCC(C(=O)c2ccccc2)CC1`: half-maximal inhibition (IC50) required 0.25 µM.

In turn, `CSc1nc(-c2ccc(OC(F)(F)F)cc2)nn1C(=O)N(C)C` came in with an IC50 of 0.00176 µM.

For `CCc1c(C)n(C(=O)N2CCCCC2)oc1=O`, the IC50 came out at 0.018 µM. In turn, `CCCCCCSc1nc(-c2ccc(C)cc2)nn1C(=O)N(C)C` came in with an IC50 of 0.882 µM.

Take `Cc1c(C(C)(C)C)c(=O)on1C(=O)N1CCCCC1`: the 50% inhibitory concentration (IC50) was 0.014 µM. Consider `Cc1c(C(C)C)c(=O)on1C(=O)N1CCCCC1C` (stereo unspecified), for which the IC50 turned out to be 0.093 µM. Molecule `CCOC(=O)C1CCN(C(=O)n2oc(=O)c(C(C)C)c2C)CC1` gave an IC50 of 0.006 µM.

In the case of `Cc1c(Cc2cc3ccccc3n2C)c(=O)on1C(=O)N1CCCCC1`, the concentration for half-maximal inhibition (IC50) is 0.017 µM. The molecule `COCCc1c(C)n(C(=O)N2CCC(c3cccc(F)c3)CC2)oc1=O` displayed an IC50 of 0.02 µM. `Cc1c(Cc2ccccc2)c(=O)on1C(=O)N1CCCCC1` gave an IC50 of 0.005 µM. The result for `Cc1c(C(C)C)c(=O)on1C(=O)N(C)Cc1cccs1` reads 0.002 µM; that for `CCSc1nc(-c2ccc(OC)cc2)nn1C(=O)N1CCOCC1`, 0.159 µM; that for `CCOCCc1c(C)n(C(=O)N2CCC(C)CC2)oc1=O`, 0.003 µM. Take `O=C(N1CCCCC1)n1nc(-c2ccc(Cl)cc2)nc1SC1CCCCC1`: the IC50 was 0.882 µM. Compared with the last molecule, the IC50 is about 290-fold higher. The same measure for `Cc1c(C2CCOCC2)c(=O)on1C(=O)N1CCCCC1`: 0.071 µM; for `Cc1c(C(C)C)c(=O)on1C(=O)N1CCCC1`: 0.015 µM. In turn, `CSc1nc(-c2ccc(C(F)(F)F)cc2)nn1C(=O)N(C)C` registered a half-inhibitory concentration (IC50) of 0.00176 µM. The same measure for `Cc1c(C(C)C)c(=O)on1C(=O)N1CCC(=O)CC1`: 0.2 µM; for `CSc1nc(-c2ccc(C)cc2)nn1C(=O)N1CCOCC1`: 0.0706 µM. The result for `Cc1c(C(C)C)c(=O)on1C(=O)N(C)c1ccccn1` reads 0.24 µM; that for `CCN(CC)C(=O)C1CCCN(C(=O)n2oc(=O)c(C(C)C)c2C)C1` (stereo unspecified), above 1 µM; that for `Cc1c(C(C)C)c(=O)on1C(=O)N1CCCC(CO)C1` (stereo unspecified), 0.18 µM.

In turn, `Cc1c(C(C)C)c(=O)on1C(=O)Nc1ccccc1` showed a concentration for half-maximal inhibition (IC50) above 1 µM. The molecule `CCSc1nc(-c2ccc(Cl)cc2)nn1C(=O)N(C)C` came in with a half-maximal inhibitory concentration (IC50) of 0.00371 µM.

Take `CSc1nc(/C=C/c2ccccc2)nn1C(=O)N(C)C`: the IC50 came out at 0.882 µM. In the case of `Cc1c(C(C)C)c(=O)on1C(=O)N(C)Cc1cccc(F)c1`, half-maximal inhibition (IC50) required 0.005 µM. The same measure for `Cc1c(CC(C)C)c(=O)on1C(=O)N1CCC(c2ccccc2)CC1`: 0.01 µM. With `Cc1c(C(C)C)c(=O)on1C(=O)N1CCN(c2ccccc2)CC1`, the IC50 was found to be 0.006 µM. `Cc1c(C2CCCCC2)c(=O)on1C(=O)N1CCC(C)CC1` gave an IC50 of 0.004 µM. The result for `CSc1nc(-c2ccc(Cl)cc2)nn1C(=O)N1CCOCC1` reads 0.0353 µM; that for `CCCCCCSc1nc(-c2ccc(C)cc2)nn1C(=O)N(C)c1ccccc1`, 0.0123 µM. Regarding `Cc1c(C(C)C)c(=O)on1C(=O)N1CCN(c2ncccn2)CC1`, half-maximal inhibition (IC50) required 0.067 µM. In turn, `Cc1c(Sc2ccc(Cl)cc2)c(=O)on1C(=O)N1CCCCC1` registered a half-inhibitory concentration (IC50) of 0.006 µM. The result for `Cc1c(C(C)C)c(=O)on1C(=O)N(C)CC(N)=O` reads above 1 µM. In the case of `CCOc1nn(-c2cccc(OCc3ccccc3)c2)c(=O)o1`, the half-inhibitory concentration (IC50) is 0.0194 µM. With `Cc1c(C(C)C)c(=O)on1C(=O)N(C)Cc1ccco1`, the IC50 is 0.004 µM. `Cc1c(C)n(C(=O)N2CCCCC2)oc1=O` gave an IC50 of 0.013 µM. For the molecule `Cc1c(C(C)C)c(=O)on1C(=O)N1CC=CC1`, half-maximal inhibition (IC50) required 0.072 µM. The result for `Cc1c(C(C)C)c(=O)on1C(=O)N(C)CCC#N` reads above 1 µM; that for `Cc1c(C(C)C)c(=O)on1C(=O)N1CCN(C)CC1`, 0.314 µM. The result for `Cc1c(C2CCCCC2)c(=O)on1C(=O)N1CCCCC1` reads 0.011 µM; that for `Cc1c(C(C)C)c(=O)on1C(=O)N(C)Cc1ccc(F)cc1`, 0.111 µM. Regarding `Cc1c(C2CCCC2)c(=O)on1C(=O)N1CCCCC1`, inhibition was half-maximal at 0.006 µM (IC50). The same measure for `COCCc1c(C)n(C(=O)N2CCCCC2)oc1=O`: 0.01 µM; for `CSc1nc(-c2ccc(C)cc2)nn1C(=O)N(C)c1ccccc1`: 0.00176 µM; for `Cc1c(C(C)C)c(=O)on1C(=O)N(C)c1ccccc1`: 0.007 µM. With `Cc1c(CC(C)C)c(=O)on1C(=O)N1CCCCC1`, half-maximal inhibition (IC50) was put at 0.005 µM. The molecule `Cc1c(C(C)C)c(=O)on1C(=O)N(C)Cc1ccccc1F` gave a concentration for half-maximal inhibition (IC50) of 0.004 µM. As to `COc1nn(-c2ccc(NC(=O)c3ccc(C(C)(C)C)cc3)cc2)c(=O)o1`, the midpoint of inhibition, the IC50, lay at 0.00041 µM. As for `CN(C(=O)n1nc(-c2ccc(Cl)cc2)nc1SCC1CC1)c1ccccc1`, the concentration for half-maximal inhibition (IC50) worked out at 0.00109 µM. Regarding `Cc1c(C(C)C)c(=O)on1C(=O)N1CCOCC1`, the concentration for half-maximal inhibition (IC50) was 0.052 µM. As for `CCN(CC)C(=O)n1oc(=O)c(C(C)C)c1C`, the IC50 was found to be 1.4 µM. This IC50 lies about 27-fold higher than the previous one. In turn, `Cc1c(C(C)C)c(=O)on1C(=O)N1CCC(O)(c2ccccc2)CC1` came in with a half-maximal inhibitory concentration (IC50) above 1 µM. Molecule `Cc1c(S(=O)(=O)c2ccc(Cl)cc2)c(=O)on1C(=O)N1CCCCC1` showed a concentration for half-maximal inhibition (IC50) of 0.035 µM. `CCCCc1c(C)n(C(=O)N2CCCCC2)oc1=O` returned an IC50 of 0.007 µM. This IC50 is about 5-fold lower than that of the molecule before. As for `Cc1c(C(C)C)c(=O)on1C(=O)N(C)c1ccc(Cl)cc1`, half-maximal inhibition (IC50) was put at 0.017 µM.

For the molecule `Cc1c(C(C)C)c(=O)on1C(=O)NC(C)(C)C`, the IC50 is above 1 µM. With `Cc1c(C(C)C)c(=O)on1C(=O)N1CCCC(C)(C)C1`, the IC50 turned out to be 0.007 µM.

Molecule `Cc1ccc(-c2nc(SCc3ccccc3)[nH]c(=O)c2CCO)cc1` came in with an IC50 of 2.98 µM.

Take `CCSc1nc(-c2ccc(OC)cc2)nn1C(=O)N(C)c1ccccc1`: the IC50 worked out at 0.00529 µM. Molecule `Cc1c(C(C)C)c(=O)on1C(=O)N1CCC(C(=O)N(C)C)CC1` registered an IC50 above 1 µM.

Molecule `Cc1c(C(C)C)c(=O)on1C(=O)N(C)CCc1ccccc1` came in with a half-inhibitory concentration (IC50) of 0.18 µM. For the molecule `Cc1c(C(C)C)c(=O)on1C(=O)N1CCC(c2cccc(F)c2)CC1`, 0.012 µM corresponded to half-maximal inhibition (IC50).

`Cc1c(C(C)C)c(=O)on1C(=O)N1CCC(c2ccccc2)CC1` had an IC50 of 0.012 µM. The same measure for `Cc1c(C(C)C)c(=O)on1C(=O)N1CCN(Cc2ccccc2)CC1`: 0.065 µM; for `Cc1c(Sc2ccccc2)c(=O)on1C(=O)N1CCCCC1`: 0.006 µM.
